Assay results as given in ChEMBL document CHEMBL1150458, “A highly potent series of fluoroalkyl benzoxazine pyridine-N-oxide potassium channel openers” (Bioorg Med Chem Lett, 1993).

Legend:
Format in all cases: functional
Cavia porcellus [1] = organism: Cavia porcellus; test: The compound was tested for hypotensive activity against guinea pig detrusor (bladder) strip mildly depolarized with 15 mM KCl
Cavia porcellus [2] = organism: Cavia porcellus; test: Tested for percent increase of efflux rate constant of 0.233 uM of compound using guinea pig detrusor
Cavia porcellus [3] = organism: Cavia porcellus; test: The compound was tested for hypotensive activity against guinea pig vascular tissue (portal vein) strip mildly depolarized with 15 mM KCl
Rattus norvegicus = test: Tested for lowering of blood pressure in spontaneously hypertensive rat model upon oral administration at 5 ug/kg

C[C@@]1(C(F)(F)F)CN(c2cccc[n+]2[O-])c2cc(S(=O)(=O)c3ccccc3)ccc2O1
IC50 (Cavia porcellus [1]): 280 pM

CC1(C(F)(F)F)CN(c2cccc[n+]2[O-])c2cc(S(=O)(=O)c3ccccc3)ccc2O1 (racemic)
IC50 (Cavia porcellus [1]): 540 pM

CC1(C)CN(c2cccc[n+]2[O-])c2cc([N+](=O)[O-])ccc2O1
IC50 (Cavia porcellus [1]): 74000 pM

CC1(C)CN(c2cccc[n+]2[O-])c2cc(S(=O)(=O)c3ccccc3)ccc2O1
IC50 (Cavia porcellus [1]): 4100 pM

O=[N+]([O-])c1ccc2c(c1)N(c1cccc[n+]1[O-])CC(C(F)F)(C(F)F)O2
Increase (Cavia porcellus [2]): 40.5% | IC50 (Cavia porcellus [3]): 600 pM | Blood pressure (Rattus norvegicus): 35 mmHg

C[C@]1(C(F)(F)F)CN(c2cccc[n+]2[O-])c2cc(S(=O)(=O)c3ccccc3)ccc2O1
IC50 (Cavia porcellus [1]): 680 pM
